In PubChem BioAssay (NCI) one finds TGI and GI50 data, which are given here for 29 molecules.

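Tested at 5 concentrations; 48 h exposure; 96-well plates; endpoints linearly interpolated, else capped at highest concentration. At the GI50, growth is halved. At the TGI there is no net growth.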

Common to all, as to assay: NCI-60 cell line screen, 48 h
Assay [1] deals with 786-0 renal.
In assay [2] the test system is IGROV1 ovarian.
The subject of assay [3] is PC-3 prostate.
The test system of assay [4] is MDA-MB-435.
The test system of assay [5] is ACHN renal.
Assay [6] concerns HCT-116 colon.
Assay [7] has as its system NCI-H460 lung.
In assay [8] the test system is SK-MEL-2 melanoma.
The test system of assay [9] is CAKI-1 renal.
Assay [10] deals with MDA-N.
For assay [11], the system named is T-47D breast.

In the case of `CC(=O)c1ccc2c(c1)oc(=O)n2CCN(C)C`, the TGI in assay [1], in assay [2], in [3], in assay [4], in assay [5] and in assay [6] was greater than 100 µM each time. The TGI in assay [7], in [8] and in assay [9] was greater than 100 µM throughout.
In the case of `O=C1CCC2=C(CCC2)N1CCc1ccc2c(c1)OCO2`, the TGI in assay [1], in [2], in assay [3], in [5], in assay [6] and in assay [10] was greater than 100 µM throughout. Moreover, the TGI in assay [11], in assay [7], in assay [8] and in assay [9] was greater than 100 µM in each case.
With `COc1ccc(C2C(C(=O)O)=C(COC(C)=O)Oc3cc4c(cc32)OCO4)cc1` (centres undefined), the TGI in assay [2], in [5], in assay [6], in assay [7] and in [9] was greater than 100 µM in each case.
Take `CN(N)C(=O)NCCCl`: the TGI in assay [1], in [2], in assay [3], in [4], in [5] and in assay [6] was greater than 100 µM each time. The TGI in assay [10], in assay [7], in assay [8] and in assay [9] was greater than 100 µM in each case.
Consider `Cc1nnc(N)nc1/C=C\c1cccs1`, for which the TGI was determined as 52.1 µM in [1]; 28.7 µM in assay [2]; 56.4 µM in [3]; 74.9 µM in assay [4]; 33.1 µM in [5]; 35.5 µM in [6]. The TGI in [11] was greater than 100 µM; in assay [7], 32.5 µM; in assay [8] it was 30.5 µM; in [9], greater than 100 µM.
In the case of `NCCCCNCCCN`, the TGI in assay [1], in assay [2], in assay [3], in assay [4], in assay [5] and in assay [6] was greater than 100 µM throughout. The TGI in assay [11] was greater than 100 µM; in assay [7] it was greater than 100 µM; in [8], greater than 100 µM; in [9] it was 3.1 µM.
With `CC(C)(C)OC(=O)NC(CCCCNC(=O)OCc1ccccc1)C(=O)NC(CCCCNC(=O)OCc1ccccc1)C(=O)ON1C(=O)CCC1=O` (centres undefined), the TGI in [1], in assay [2], in [3], in [6], in assay [10] and in [11] was greater than 100 µM in each case. Moreover, the TGI in assay [8] was greater than 100 µM.
For the molecule `O=c1[nH]c(=O)n(C2CC(O)C(CO)O2)cc1NN=NCc1ccccc1` (centres undefined), the TGI in assay [1], in [2], in assay [3], in assay [4], in [5] and in assay [6] was greater than 100 µM each time. Further, the TGI in assay [10], in [11], in assay [7] and in assay [9] was greater than 100 µM each time.
Take `Cc1nc2ccccc2c(=O)n1NC(=O)Cc1ccccc1`: the TGI in assay [1], in assay [2], in assay [3], in assay [4], in [5] and in [6] was greater than 100 µM each time. For the same molecule, the TGI in assay [10], in [11] and in assay [7] was greater than 100 µM each time.
`C=C1C(=O)[C@]23[C@H](O)[C@H]1CC[C@H]2[C@@]12CO[C@@]3(O)C[C@@H]1C(C)(C)CC[C@@H]2O`: the TGI in assay [1] was greater than 25 µM; in assay [2] it was 20.9 µM; in assay [3], greater than 25 µM; in assay [4], 7.61 µM; in assay [5] it was 18.9 µM; in assay [6], 16.2 µM. In addition, the TGI in [10] and in assay [9] was greater than 25 µM in each case.
For `CCOC(OCC)C(CCc1ccccc1)c1c(N)nc(N)[nH]c1=O` (centres undefined), the TGI in [1], in assay [2], in [3], in [4], in assay [6] and in assay [11] was greater than 100 µM throughout. For the same molecule, the TGI in assay [7], in [8] and in assay [9] was greater than 100 µM each time.
In the case of `Cc1cc(NC2=NCCO2)c2c(c1C)CCCC2`, the TGI in [1] was 43 µM; in assay [2], greater than 100 µM; in assay [4], 39.5 µM; in assay [5], greater than 100 µM; in assay [6], greater than 100 µM; in assay [11], 76.5 µM. For the same molecule, the TGI in assay [7] is 63 µM.
For `N=C(N)n1[nH]c2c(c1=O)CCC2`, the TGI in assay [1], in [2], in [3], in [4], in [5] and in [6] was greater than 100 µM throughout. Moreover, the TGI in assay [10], in assay [7], in assay [8] and in assay [9] was greater than 100 µM each time.
With `Cc1cc2nc3n(c2cc1C)C(c1c(F)cccc1F)SC3` (centres undefined), the TGI in [1] was 43.4 µM; in assay [2], greater than 10 µM; in assay [3], greater than 100 µM; in assay [4], 30.9 µM; in assay [5], 40.6 µM; in assay [6] it was 28.1 µM. Moreover, the TGI is greater than 100 µM in assay [11], 38.5 µM in [7], 39.7 µM in assay [8] and 60.3 µM in assay [9].
As to `CC1CCC2c3c([nH]c4ccccc34)C3C(=O)N(C4CCCCC4)C(=O)C3C2C1` (centres undefined), the TGI is 19.6 µM in [1]; 43.9 µM in assay [2]; greater than 100 µM in assay [3]; greater than 100 µM in assay [4]; 27.8 µM in assay [5]; 24.2 µM in assay [6]. Moreover, the TGI was greater than 100 µM in assay [10], greater than 100 µM in assay [7], 40.3 µM in [8] and 30.8 µM in assay [9].
Take `COC(=O)c1ccc(C)cc1C1CN=NC12Cc1cc(C)c(C)cc1C2=O` (centres undefined): the TGI was greater than 100 µM in [1]; greater than 100 µM in assay [2]; 96.6 µM in [4]; greater than 100 µM in [5]; greater than 100 µM in assay [6]; greater than 100 µM in [10]. In addition, the TGI in assay [7] and in [9] was greater than 100 µM in each case.
Turning to `Oc1c(I)cc(I)cc1CNCCCN(Cc1ccccn1)Cc1ccccn1`, the GI50 was 0.866 µM in assay [2]; 1.17 µM in assay [3]; 0.997 µM in assay [4]; 0.912 µM in assay [5]; 1.49 µM in assay [11]; 1.2 µM in assay [7]. The values for the GI50 in assay [8] and in assay [9] were 1.18 µM and 0.896 µM, respectively. The TGI in [2] stood at 1.65 µM; in assay [3], 3.02 µM; in [4], 2 µM; in assay [5], 1.65 µM; in [11], 5.83 µM; in [7] it was 2.78 µM. Also, the TGI in assay [8] came out at 2.91 µM; in [9] it was 1.74 µM.
Take `COCC(=O)[C@]1(O)Cc2c(O)c3c(c(O)c2[C@@H](OC2CC(N)C(O)C(C)O2)C1)C(=O)c1c(OC)cccc1C3=O` (some centres undefined): the TGI is 12.2 µM in [1]; 6.83 µM in assay [2]; 1.48 µM in assay [3]; 1.08 µM in assay [6]; 0.249 µM in assay [10]; 0.737 µM in assay [11]. Moreover, the TGI in assay [7] was determined as 0.583 µM; in assay [8], 0.259 µM; in assay [9], 0.422 µM.
With `C[C@]12CCC(=O)C=C1CC[C@@H]1[C@@H]2C(=O)C[C@@]2(C)[C@H]1CC[C@]2(O)C(=O)CO`, the TGI in assay [1], in assay [2], in [5], in [6], in assay [7] and in [8] was greater than 100 µM throughout. For the same molecule, in assay [9], the TGI was greater than 100 µM.
For the molecule `CC1NOC(NS(=O)(=O)c2ccc(N=Nc3c(O)c(C(=O)O)cc4ccccc34)cc2)C1C` (centres undefined), the TGI in assay [1], in assay [2], in assay [3], in [4], in assay [5] and in assay [6] was greater than 100 µM throughout. Further, the TGI in assay [7], in [8] and in [9] was greater than 100 µM throughout.
Turning to `ClCc1c(-c2ccccc2)nn(-c2ccccc2)c1CCl`, the TGI was 22 µM in assay [1]; 42.9 µM in assay [2]; 21.4 µM in [3]; 6.42 µM in assay [4]; 25.1 µM in assay [6]; 24.2 µM in assay [10]. Besides, the TGI amounted to 5.96 µM in assay [11], 26.5 µM in assay [8] and 3.71 µM in [9].
With `COC(=O)C1=C(OC(=O)/C(=C/c2ccc(Cl)cc2)c2ccccc2)C(C(=O)OC)[C@@]2(O)[C@@H](C(=O)OC)[C@H](C)C[C@@H]1[C@@H]2C(=O)OC` (some centres undefined), the TGI in [1], in assay [2], in assay [3], in assay [4], in assay [5] and in assay [6] was greater than 100 µM in each case. Also, the TGI in assay [11], in assay [7], in [8] and in assay [9] was greater than 100 µM each time.
For the molecule `COc1ccc(OC)c(CNc2ccc(O)c(C(=O)NCCc3ccc(F)cc3)c2)c1`, the TGI in [1] was 68.4 µM; in [2], 20.9 µM; in assay [3], 32.1 µM; in assay [4] it was 8.34 µM; in assay [5], greater than 100 µM; in assay [6], 27.1 µM. The TGI in assay [10] was 23 µM; in assay [7], greater than 100 µM; in assay [8] it was 26.4 µM; in assay [9] it was 87.9 µM.
Turning to `CC(=O)c1ccc(NC(=O)/C(=N\NC(N)=O)C(C#N)CC(C)(C)C=O)cc1` (centres undefined), the TGI in assay [2], in assay [5], in assay [6], in [7], in [8] and in assay [9] was greater than 100 µM in each case.
With `O=C(c1ccc(Cl)cc1)N(C(=S)N1CCN(c2ccccn2)CC1)c1ccccc1`, the TGI in assay [1], in [2], in [5], in [6], in [7] and in [8] was greater than 100 µM in each case. The molecule further showed a TGI in assay [9] greater than 100 µM.
Take `O=C(NCCO)c1c(O)c2ccccc2[nH]c1=O`: the TGI in assay [1], in assay [2], in assay [3], in assay [4], in [5] and in assay [6] was greater than 100 µM throughout. The TGI in assay [10], in assay [7] and in [9] was greater than 100 µM throughout.
Take `O=c1c2c([nH]c3cc4c(cc13)OCO4)-c1ccccc1CCC2`: the TGI in [1], in [2], in assay [3], in assay [4], in assay [5] and in assay [6] was greater than 50 µM in each case. In addition, the TGI in assay [10], in assay [7] and in assay [9] was greater than 50 µM in each case.
On to `NCCCn1c2c(c3ccc([N+](=O)[O-])cc3c1=O)C(=O)c1cc3c(cc1-2)OCO3`, for which the GI50 was 0.478 µM in [2]; 1.17 µM in assay [3]; 0.592 µM in assay [4]; less than 0.01 µM in assay [5]; greater than 100 µM in assay [6]; less than 0.01 µM in assay [9]. The TGI in assay [2] was greater than 100 µM; in assay [3], 3.56 µM; in assay [4] it was 3.28 µM; in assay [6] it was greater than 100 µM; in assay [9], 0.491 µM.
Consider `CC(O)(c1ccccc1)c1nccc2ccccc12` (centres undefined), for which the TGI in [1] was greater than 100 µM; in assay [2], greater than 100 µM; in assay [3], greater than 100 µM; in assay [4], 39.2 µM; in [5], greater than 100 µM; in assay [6] it was greater than 100 µM. Besides, the TGI in assay [10] is 53.7 µM; in assay [11], greater than 100 µM; in assay [7], greater than 100 µM; in assay [9] it was greater than 100 µM.
